# Measurements: patent US10864211B2, “Hydroxy isoxazole compounds useful as GPR120 agonists” (Merck Sharp & Dohme Corp., priority 2016, dated 2020)
# pEC50: −log10 of the molar value. Where a name gives a salt, the structure may show the parent alone.
# Target: T1, human GPR120 (Homo sapiens, UniProt Q5NUL3)
# T1 construct: expressed in transfected cells; host or cells: CHO-K1
# T1 sequence (Q5NUL3 1-361): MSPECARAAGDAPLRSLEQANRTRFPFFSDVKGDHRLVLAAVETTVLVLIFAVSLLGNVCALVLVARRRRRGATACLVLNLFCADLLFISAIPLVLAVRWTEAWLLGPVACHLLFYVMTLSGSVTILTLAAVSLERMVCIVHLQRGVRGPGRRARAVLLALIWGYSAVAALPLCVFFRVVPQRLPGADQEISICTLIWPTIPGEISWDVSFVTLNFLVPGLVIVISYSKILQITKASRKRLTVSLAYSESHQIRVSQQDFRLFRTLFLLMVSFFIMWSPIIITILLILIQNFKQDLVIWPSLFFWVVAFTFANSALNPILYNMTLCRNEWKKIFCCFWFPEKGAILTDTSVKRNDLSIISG
# Assay: Human GPR120 IP1 assay (inositol phosphate turnover)
# Assay type: cell-based
# Settings: IP1 accumulation in CHO-K1 cells stably expressing the short form of human GPR120
# Source text: The binding of small molecule agonists to the G-protein-coupled receptor GPR120 activates phospholipase C, and leads to the generation of inositol 1,4,5-trisphosphate (InsP3 or IP3). IP3 is subsequently de-phosphorylated to IP1, which accumulates in cells and is stable in the presence of lithium chloride.
# In the present method, agonist-induced activation of the human and rat GPR120 receptor was monitored by measuring the accumulation of IP1 in CHO-K1 cells that were stably expressing the short form of human GPR120 (Accession #NM_001195755) or HEK293 cells stably expressing rat GPR120 (Accession #NM_001047088). Following agonist addition, GPR120 activation and subsequent accumulation of IP1 was measured using a homogeneous Time Resolved Fluorescence-based ELISA commercially available from CisBio (IP-one ELISA Kit). The IP-One ELISA was a competitive immunoassay which uses IP1 labeled with […] and a terbium cryptate-labeled anti-IP1 monoclonal antibody. […] The signal loss was then back calculated to IP1 concentration using an IP1 standard curve. Determination of IP1 concentration was a direct measure of GPR120 activation and was used to determine compound potency (EC50).
# Human GPR120 stable cell-lines were generated in CHO cells. The expression plasmids were transfected using lipofectamine (Life Technologies) following manufacturer's instructions. Stable cell-lines were generated following drug selection and single cell cloning. Rat GPR120 stable cell-lines were generated in HEK cells using the Jump-In™ cell engineering platform (Life Technologies) following manufacturer's instructions. Stable cell-lines were generated following drug selection and single cell cloning.
# The assay was performed in 384-well format. CHO cells stably expressing human GPR120 were plated at 20,000 cells per well in growth medium (DMEM/F12, 10% fetal calf serum). HEK293 cells stably expressing rat GPR120 were plated at […] per well in growth medium (DMEM, 10% fetal calf serum). Cell plates were then incubated 16 hours at 37 degrees in a 5% CO2 incubator. Measurement of Inositol Phosphate Turnover (IP1) was performed using the CisBio IP-One kit (Part number 62IPAPEB). After the 16 hour incubation, the growth media was removed by centrifugation using the BlueWasher (AusWasher GUI Ver. v1.0.1.8) Protocol #21-“Light Dry” and 10 μl of stimulation buffer (prepared as described in the kit) was added to each well. In a separate plate, compounds were diluted in DMSO (200-fold over the final concentration in the assay well) and 50 nl was acoustically transferred to the appropriate well in the assay cell plate. The plates were then incubated for 60 minutes at 37 degrees in a 5% CO2 incubator. 10 μl of detection buffer (also prepared as described in the IP-One kit) was added to each well and the plates were incubated at room temperature for 60 minutes in the dark. The plates were then read in a Perkin ElmerEnVision or equivalent reader able to measure FRET. Fluorescent ratio of emission at 665 and 620 nm was then converted to the IP1 concentration by back calculating from an IP1 standard curve prepared at the time of the assay. The data was normalized to % activity using a reference compound, and the EC50 values were determined using a standard 4-parameter fit.
row,Compound,pEC50
1,"Oc1cc(-c2cnc(O[C@H]3C[C@@H](c4ccc(F)c(C(F)F)c4)C3)cn2)on1 [Example 45, 5-[5-({cis-3-[3-(difluoromethyl)-4-fluorophenyl]cyclobutyl}oxy)pyrazin-2-yl]isoxazol-3-ol]",7.62
2,"Cc1ccc([C@H]2C[C@@H](Oc3cnc(-c4cc(O)no4)cn3)C2)c(F)c1 [Example 46, 5-(5-{[cis-3-(2-fluoro-4-methylphenyl)cyclobutyl]oxy}pyrazin-2-yl)isoxazol-3-ol]",7.44
3,"Cc1ccc([C@H]2C[C@H](Oc3cnc(-c4cc(O)no4)cn3)C2)c(F)c1 [Example 47, 5-(5-{[trans-3-(2-fluoro-4-methylphenyl)cyclobutyl]oxy}pyrazin-2-yl)isoxazol-3-ol]",6.98
4,"Cc1ccc([C@H]2C[C@@H](Oc3cnc(-c4cc(O)no4)cn3)C2)c(F)c1 [Example 48, 5-(5-{[cis-3-(2-fluoro-4-methylphenyl)cyclobutyl]oxy}pyrazin-2-yl)isoxazol-3-ol]",7.62
5,"Oc1cc(-c2cnc(O[C@H]3C[C@@H](c4c(F)cc(Cl)cc4F)C3)cn2)on1 [Example 49, ammonium 5-(5-{[cis-3-(4-chloro-2,6-difluorophenyl)-cyclobutyl]oxy}pyrazin-2-yl)isoxazol-3-olate]",8.01
6,"Oc1cc(-c2cnc(O[C@H]3C[C@@H](c4c(F)cc(OC(F)F)cc4F)C3)cn2)on1 [Example 50, ammonium 5-[5-({cis-3-[4-(difluoromethoxy)-2,6-difluorophenyl]cyclobutyl}oxy)pyrazin-2-yl]isoxazol-3-olate]",7.64
7,"Cc1cc(F)c([C@H]2C[C@@H](Oc3cnc(-c4cc(O)no4)cn3)C2)c(F)c1 [Example 51, ammonium 5-(5-{[cis-3-(2,6-difluoro-4-methyl-phenyl)-cyclobutyl]oxy}pyrazin-2-yl)isoxazol-3-olate]",7.80
8,"Oc1cc(-c2cnc(O[C@H]3C[C@@H](c4cc(F)c(Cl)c(F)c4)C3)cn2)on1 [Example 52, 5-(5-{[cis-3-(4-chloro-3,5-di-fluorophenyl)cyclobutyl]oxy}pyrazin-2-yl)isoxazol-3-ol]",7.55
9,"Oc1cc(-c2cnc(O[C@H]3C[C@@H](c4cc(F)c(OC(F)F)c(F)c4)C3)cn2)on1 [Example 53, ammonium 5-[5-({cis-3-[4-(difluoromethoxy)-3,5-di-fluorophenyl]cyclobutyl}oxy)pyrazin-2-yl]isoxazol-3-olate]",7.85
10,"COc1cc(OC)cc([C@H]2C[C@@H](Oc3cnc(-c4cc(O)no4)cn3)C2)c1 [Example 54, ammonium 5-(5-{[cis-3-(3,5-dimethoxyphenyl)cyclobutyl]oxy}pyrazin-2-yl)isoxazol-3-olate]",7.00
11,"Oc1cc(-c2cnc(O[C@H]3C[C@@H](c4ccc(C(F)(F)F)cc4)C3)cn2)on1 [Example 55, 5-[5-({cis-3-[4-(trifluoromethyl)phenyl]cyclobutyl}oxy)pyrazin-2-yl]isoxazol-3-ol]",7.96
12,"Oc1cc(-c2cnc(O[C@H]3C[C@@H](c4ccc(OC(F)(F)F)cc4)C3)cn2)on1 [Example 56, 5-[5-({cis-3-[4-(trifluoromethoxy)phenyl]cyclobutyl}oxy)pyrazin-2-yl]isoxazol-3-ol]",7.31
13,"Cc1ccc([C@H]2C[C@@H](Oc3cnc(-c4cc(O)no4)cn3)C2)cc1F [Example 57, 5-(5-{[cis-3-(3-fluoro-4-methylphenyl)cyclobutyl]oxy}pyrazin-2-yl)isoxazol-3-ol]",7.64
14,"Oc1cc(-c2cnc(O[C@H]3C[C@@H](c4ccc(OC(F)F)cc4)C3)cn2)on1 [Example 58, 5-[5-({cis-3-[4-(difluoromethoxy)phenyl]cyclobutyl}oxy)pyrazin-2-yl]isoxazol-3-ol]",6.98
15,"Oc1cc(-c2cnc(O[C@H]3C[C@@H](c4ccc(C(F)F)cc4)C3)cn2)on1 [Example 59, 5-[5-({cis-3-[4-(difluoromethyl)phenyl]cyclobutyl}oxy)pyrazin-2-yl]isoxazol-3-ol]",8.10
16,"Oc1cc(-c2cnc(O[C@H]3C[C@H](c4ccc(OC5CC5)cc4)C3)cn2)on1 [Example 60, 5-[5-({trans-3-[4-(cyclopropyloxyl)phenyl]cyclobutyl}oxy)pyrazin-2-yl]isoxazol-3-ol]",7.89
17,"Oc1cc(-c2ccc(O[C@H]3C[C@@H](OCc4ccc(F)c(F)c4)C3)nc2)on1 [Example 62, 2-({cis-3-[(3,4-difluorobenzyl)oxy]cyclobutyl}oxy)-5-(3-hydroxy-isoxazol-5-yl)pyridinium trifluoroacetate]",7.40
18,"Oc1cc(-c2cnc(O[C@H]3C[C@@H](Oc4ccc(F)c(Cl)c4)C3)cn2)on1 [Example 63, ammonium 5-(5-{[cis-3-(3-chloro-4-fluorophenoxy)cyclobutyl]-oxy}pyrazin-2-yl)isoxazol-3-olate]",7.28
19,"Oc1cc(-c2ccc(OCC3CC(Oc4ccccc4)C3)nc2)on1 (stereo not shown) [Example 64, ammonium 5-{6-[(3-phenoxycyclobutyl)methoxy]pyridin-3-yl}isoxazol-3-olate]",5.70
20,"Oc1cc(-c2cnc(O[C@H]3C[C@@H](COc4ccc(F)cc4)C3)cn2)on1 [Example 65, sodium 5-[5-({cis-3-[(4-fluorophenoxy)methyl]-cyclobutyl}oxy)pyrazin-2-yl]isoxazol-3-olate]",8.24
21,"Oc1cc(-c2cnc(O[C@H]3C[C@@H](Oc4cccc(C(F)(F)F)c4)C3)cn2)on1 [Example 66, ammonium 5-[5-({cis-3-[3-(trifluoromethyl)phenoxy]cyclobutyl}oxy)pyrazin-2-yl]isoxazol-3-olate]",7.43
22,"Oc1cc(-c2cnc(O[C@H]3C[C@@H](Oc4ccc(C(F)(F)F)cc4)C3)cn2)on1 [Example 67, ammonium 5-[5-({cis-3-[4-(trifluoromethyl)phenoxy]cyclobutyl}oxy)pyrazin-2-yl]isoxazol-3-olate]",7.33
23,"Oc1cc(-c2cnc(O[C@H]3C[C@@H](Oc4cccc(OC(F)(F)F)c4)C3)cn2)on1 [Example 68, 5-[5-({cis-3-[3-(trifluoromethoxy)phenoxy]cyclobutyl}oxy)pyrazin-2-yl]isoxazol-3-ol]",7.28
24,"Oc1cc(-c2cnc(O[C@H]3C[C@@H](Oc4csc(C(F)(F)F)c4)C3)cn2)on1 [Example 69, 5-{5-[(cis-3-{[5-(trifluoromethyl)thiophen-3-yl]oxy}cyclobutyl)oxy]pyrazin-2-yl}isoxazol-3-ol]",7.60
25,"Oc1cc(-c2cnc(O[C@H]3C[C@@H](Oc4ccc(F)c(C(F)(F)F)c4)C3)cn2)on1 [Example 70, 5-[5-({cis-3-[4-fluoro-3-(trifluoromethyl)phenoxy]cyclobutyl}oxy)pyrazin-2-yl]isoxazol-3-ol]",7.62
26,"Cc1cc(O[C@H]2C[C@@H](Oc3cnc(-c4cc(O)no4)cn3)C2)ccc1F [Example 71, 5-(5-{[cis-3-(4-fluoro-3-methylphenoxy)cyclobutyl]oxy}pyrazin-2-yl)isoxazol-3-ol]",7.42
27,"Oc1cc(-c2ccc(O[C@H]3C[C@@H](OCc4cccc(C(F)(F)F)c4)C3)nc2)on1 [Example 74, 5-(3-hydroxyisoxazol-5-yl)-2-[(cis-3-{[3-(trifluoromethyl)benzyl]oxy}cyclobutyl)oxy]pyridinium trifluoroacetate]",7.96
28,"Cc1nc(C(F)(F)F)c(CO[C@H]2C[C@@H](Oc3ccc(-c4cc(O)no4)cn3)C2)s1 [Example 75, 5-(3-hydroxyisoxazol-5-yl)-2-[(cis-3-{[2-methyl-4-(trifluoromethyl)-1,3-thiazol-5-yl]methoxy}cyclobutyl)oxy] pyridinium trifluoroacetate]",6.83
